Common to all, as to experiment: relative viability (nuclei count vs DMSO), 5 days (fraction); higher = more cells survive
Compound in the assay “IDH-C35 + Decitabine”: Cc1ccccc1C(C(=O)NC1CCCCC1)N(C(=O)Cn1ccnc1C)c1cccc(F)c1 [IDH-C35] + Nc1ncn([C@H]2C[C@H](O)[C@@H](CO)O2)c(=O)n1 [Decitabine] (partner 2 µM)
The method, boiled down: (§1)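 Lung cancer cell lines in 1536-well plates got either a single drug or a fixed anchor-drug dose together with five library-drug doses (not always all listed) in √10 steps, by pin tool, on the day after seeding. Nuclei were counted after 5 days, and relative viability is the treated-to-vehicle ratio of nuclei counts. Values are medians of duplicate plates.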

Compound in the assay “IDH-C35 + Dasatinib”: Cc1ccccc1C(C(=O)NC1CCCCC1)N(C(=O)Cn1ccnc1C)c1cccc(F)c1 [IDH-C35] + Cc1nc(Nc2ncc(C(=O)Nc3c(C)cccc3Cl)s2)cc(N2CCN(CCO)CC2)n1 [Dasatinib] (partner 0.075 µM)
Put shortly:
as §1

Compound in the assay “IDH-C35 + Vorinostat”: Cc1ccccc1C(C(=O)NC1CCCCC1)N(C(=O)Cn1ccnc1C)c1cccc(F)c1 [IDH-C35] + O=C(CCCCCCC(=O)Nc1ccccc1)NO [Vorinostat] (partner 1 µM)
Put shortly: as §1

Compound in assay [1]: CC1=C(C(=NN1)C)CC2=C(C3=C(S2)N(C(=O)N(C3=O)C)CC(C)C)C(=O)N4C[C@@H](CO4)O + O=C(CCCCCCC(=O)Nc1ccccc1)NO [Vorinostat] (partner 1 µM)
The method, boiled down: as §1

Regarding RERF-LC-KJ, the relative viability is 0.727 with IDH-C35 + Decitabine (first compound 0.08 µM); 0.69 with IDH-C35 + Decitabine (first compound 0.253 µM); 0.753 with IDH-C35 + Decitabine (first compound 0.8 µM); 0.809 with IDH-C35 + Decitabine (first compound 2.53 µM); 0.681 with IDH-C35 + Decitabine (first compound 8 µM); 0.894 with IDH-C35 + Dasatinib (first compound 0.08 µM). The relative viability with IDH-C35 + Dasatinib (first compound 0.253 µM) worked out at 0.76; with IDH-C35 + Dasatinib (first compound 0.8 µM), 0.898; in the assay with IDH-C35 + Dasatinib (first compound 2.53 µM) it was 0.964; with IDH-C35 + Dasatinib (first compound 8 µM) it was 0.761; in the assay with IDH-C35 + Vorinostat (first compound 0.08 µM), 0.655; with IDH-C35 + Vorinostat (first compound 0.253 µM) it was 0.636. Besides, the relative viability was 0.698 with IDH-C35 + Vorinostat (first compound 0.8 µM); 0.718 with IDH-C35 + Vorinostat (first compound 2.53 µM); 0.754 with IDH-C35 + Vorinostat (first compound 8 µM); 0.738 in assay [1] (first compound 0.0025 µM); 0.814 in assay [1] (first compound 0.007906 µM); 0.66 in assay [1] (first compound 0.025 µM). In addition, the results for the relative viability in assay [1] (first compound 0.07906 µM) and in assay [1] (first compound 0.25 µM) were 0.696 and 0.767, respectively.
In the case of A-427, the relative viability with IDH-C35 + Decitabine (first compound 0.08 µM) was found to be 0.622; with IDH-C35 + Decitabine (first compound 0.253 µM), 0.57; in the assay with IDH-C35 + Decitabine (first compound 0.8 µM), 0.598; with IDH-C35 + Decitabine (first compound 2.53 µM) it was 0.526; in the assay with IDH-C35 + Decitabine (first compound 8 µM), 0.58; with IDH-C35 + Dasatinib (first compound 0.08 µM), 0.738. Moreover, the relative viability in the assay with IDH-C35 + Dasatinib (first compound 0.253 µM) worked out at 0.636; with IDH-C35 + Dasatinib (first compound 0.8 µM), 0.685; with IDH-C35 + Dasatinib (first compound 2.53 µM) it was 0.702; with IDH-C35 + Dasatinib (first compound 8 µM), 0.658; in the assay with IDH-C35 + Vorinostat (first compound 0.08 µM) it was 0.868; in the assay with IDH-C35 + Vorinostat (first compound 0.253 µM), 0.796. The relative viability stood at 0.848 in the assay with IDH-C35 + Vorinostat (first compound 0.8 µM); 0.901 with IDH-C35 + Vorinostat (first compound 2.53 µM); 0.856 in the assay with IDH-C35 + Vorinostat (first compound 8 µM); 0.899 in assay [1] (first compound 0.0025 µM); 0.895 in assay [1] (first compound 0.007906 µM); 0.865 in assay [1] (first compound 0.025 µM). Further, the results for the relative viability in assay [1] (first compound 0.07906 µM) and in assay [1] (first compound 0.25 µM) were 0.826 and 0.929, respectively.
For NCI-H441, the relative viability with IDH-C35 + Decitabine (first compound 0.08 µM) came to 0.279; with IDH-C35 + Decitabine (first compound 0.253 µM), 0.23; with IDH-C35 + Decitabine (first compound 0.8 µM), 0.272; with IDH-C35 + Decitabine (first compound 2.53 µM) it was 0.244; with IDH-C35 + Decitabine (first compound 8 µM), 0.228; in the assay with IDH-C35 + Dasatinib (first compound 0.08 µM), 0.629. For the same cell line, the relative viability with IDH-C35 + Dasatinib (first compound 0.253 µM) is 0.753; with IDH-C35 + Dasatinib (first compound 0.8 µM), 0.536; in the assay with IDH-C35 + Dasatinib (first compound 2.53 µM), 0.673; in the assay with IDH-C35 + Dasatinib (first compound 8 µM), 0.541; in the assay with IDH-C35 + Vorinostat (first compound 0.08 µM) it was 0.906; with IDH-C35 + Vorinostat (first compound 0.253 µM), 0.74. Besides, the relative viability with IDH-C35 + Vorinostat (first compound 0.8 µM) was 0.787; with IDH-C35 + Vorinostat (first compound 2.53 µM) it was 0.683; with IDH-C35 + Vorinostat (first compound 8 µM), 0.887; in assay [1] (first compound 0.0025 µM) it was 0.959; in assay [1] (first compound 0.007906 µM), 0.774; in assay [1] (first compound 0.025 µM), 0.716. The relative viability in assay [1] (first compound 0.07906 µM) was found to be 0.696; in assay [1] (first compound 0.25 µM), 1.12.
Regarding NCI-H1792, the relative viability came to 0.45 in the assay with IDH-C35 + Decitabine (first compound 0.08 µM); 0.48 with IDH-C35 + Decitabine (first compound 0.253 µM); 0.476 with IDH-C35 + Decitabine (first compound 0.8 µM); 0.539 with IDH-C35 + Decitabine (first compound 2.53 µM); 0.533 with IDH-C35 + Decitabine (first compound 8 µM); 0.725 with IDH-C35 + Dasatinib (first compound 0.08 µM). Further, the relative viability with IDH-C35 + Dasatinib (first compound 0.253 µM) came out at 0.728; in the assay with IDH-C35 + Dasatinib (first compound 0.8 µM), 0.473; in the assay with IDH-C35 + Dasatinib (first compound 2.53 µM) it was 0.944; in the assay with IDH-C35 + Dasatinib (first compound 8 µM) it was 0.815.
In the case of SK-LU-1, the relative viability in the assay with IDH-C35 + Decitabine (first compound 0.08 µM) was determined as 0.636; in the assay with IDH-C35 + Decitabine (first compound 0.253 µM), 0.687; with IDH-C35 + Decitabine (first compound 0.8 µM), 0.592; in the assay with IDH-C35 + Decitabine (first compound 2.53 µM) it was 0.65; with IDH-C35 + Decitabine (first compound 8 µM), 0.654; in the assay with IDH-C35 + Dasatinib (first compound 0.08 µM), 0.188. In addition, the relative viability with IDH-C35 + Dasatinib (first compound 0.253 µM) was determined as 0.181; in the assay with IDH-C35 + Dasatinib (first compound 0.8 µM) it was 0.172; with IDH-C35 + Dasatinib (first compound 2.53 µM) it was 0.177; with IDH-C35 + Dasatinib (first compound 8 µM) it was 0.191; with IDH-C35 + Vorinostat (first compound 0.08 µM), 0.733; with IDH-C35 + Vorinostat (first compound 0.253 µM), 0.752. Besides, the relative viability in the assay with IDH-C35 + Vorinostat (first compound 0.8 µM) was found to be 0.892; with IDH-C35 + Vorinostat (first compound 2.53 µM), 0.831; with IDH-C35 + Vorinostat (first compound 8 µM), 0.778; in assay [1] (first compound 0.0025 µM), 0.744; in assay [1] (first compound 0.007906 µM), 0.528; in assay [1] (first compound 0.025 µM), 0.571. The relative viability in assay [1] (first compound 0.07906 µM) and in assay [1] (first compound 0.25 µM) was 0.611 throughout.

The values above are taken from the supplement of paper PMC10307832.
